How the values were obtained:
RWPE1 cells [1] = assay: Cell Titer Glo cell viability assay, RWPE1; format: cell-based; details: 10 μM; after 24 h and 48 h; serum free medium with EGF and BPE
Protocol: FIGS. 4A-4B show cellular toxicity of lead compounds in nonmalignant androgen independent prostate-derived cell lines. (4A) PNT1A cells were plated in a 96-well plate at 1×10^4 cell/well in the presence of FBS or CSS. Cells were allowed to attach overnight and were treated with either vehicle (DMSO) or 10 μM of indicated compound. At 24 and 48 h, cellular viability was compared using the Cell Titer Glo Luminescent Cell Viability kit. (4B) RWPE1 cells were plated in a 96-well plate at 1×10^4 cells/well using the specified serum free media. Cells were allowed to attach overnight and treated with 10 μM of indicated compound.
Cell viability was determined using the Cell Titer Glo Cell Viability Assay (Promega, Madison, Wis.), as recommended by manufacturer. All experiments were performed in quadruplicate.
Next, whether the same concentration of compounds decreases the viability of the AR negative and nonmalignant prostate derived cells, PNT1A and RWPE1, was tested.

LNCaP cells = assay: RTCA impedance proliferation assay, LNCaP; format: cell-based; details: 10 μM; for LNCaP cell proliferation, concentration dependence: 1 μM and 0.1 μM
Protocol: (5A-5B) LNCaP cells were plated onto xCelligence E-plates at 10^4 cells per well in medium supplemented with either 10% FBS (5A) or 10% CSS (5B) serum. […] (5C-5D) LAPC4 cells were plated at 5×10^4 cells per well onto xCelligence E-plates in media supplemented with FBS (5C) or CSS (5D) and allowed to attach overnight. Treatment was conducted as in (5A-5B) and impedance measured continuously in 30 min intervals. […] Background impedance was established after incubating E-plates (Acea Biosciences, San Diego, Calif.) with 50 μL media at room temperature for 30 min and placed in RTCA. Cells were then seeded in 100 μL per well. Cells attached overnight and then treated. During attachment stage and after treatment impedance was measured every 30 min. Impedance is represented by cell index and is calculated as follows: CI=(Zi−Zo)/15Ω where Zi is impedance at an individual time point, and Zo is the background impedance. Average CI was calculated from four wells per treatment at each time point and normalized to the impedance immediately after compound addition.

PNT1A cells = assay: RTCA impedance proliferation assay, PNT1A; format: cell-based; details: 10 μM
Protocol: (6A-6B) PNT1A cells were plated onto xCelligence E-plates at 5×10^4 cells per well in media supplemented with 10% FBS (6A) or CSS (6B). Cells were allowed to attach overnight and treated with vehicle (DMSO) or 10 μM of indicated compounds. Cellular impedance was monitored continuously with 30 min intervals. (6C) RWPE1 cells were plated at 5×10^4 cells per well in serum free medium supplemented with Epidermal Growth Factor (EGF) and Bovine Pituitary Extract ([…]) onto E-plates and treated with 10 μM of indicated compounds as indicated. […] Background impedance was established after incubating E-plates (Acea Biosciences, San Diego, Calif.) with 50 μL media at room temperature for 30 min and placed in RTCA. Cells were then seeded in 100 μL per well. Cells attached overnight and then treated. During attachment stage and after treatment impedance was measured every 30 min. Impedance is represented by cell index and is calculated as follows: CI=(Zi−Zo)/15Ω where Zi is impedance at an individual time point, and Zo is the background impedance. Average CI was calculated from four wells per treatment at each time point and normalized to the impedance immediately after compound addition.

RWPE1 cells [2] = assay: RTCA impedance proliferation assay, RWPE1; format: cell-based; details: 10 μM; serum free medium
Protocol: (6A-6B) PNT1A cells were plated onto xCelligence E-plates at 5×10^4 cells per well in media supplemented with 10% FBS (6A) or CSS (6B). Cells were allowed to attach overnight and treated with vehicle (DMSO) or 10 μM of indicated compounds. Cellular impedance was monitored continuously with 30 min intervals. (6C) RWPE1 cells were plated at 5×10^4 cells per well in serum free medium supplemented with Epidermal Growth Factor (EGF) and Bovine Pituitary Extract ([…]) onto E-plates and treated with 10 μM of indicated compounds as indicated. […] Proliferation assays were done using Roche DP Real Time Cell Analyzer (RTCA), as described by the manufacturer. Background impedance was established after incubating E-plates (Acea Biosciences, San Diego, Calif.) with 50 μL media at room temperature for 30 min and placed in RTCA. Cells were then seeded in 100 μL per well. Cells attached overnight and then treated. During attachment stage and after treatment impedance was measured every 30 min. Impedance is represented by cell index and is calculated as follows: CI=(Zi−Zo)/15Ω where Zi is impedance at an individual time point, and Zo is the background impedance. Average CI was calculated from four wells per treatment at each time point and normalized to the impedance immediately after compound addition.

LAPC4 xenograft = tested on: LAPC4 xenograft
Text: Human prostate cancer cell line LAPC4 is used to implant into immunocompromised NOD scid male mice. Once tumor sizes reach 0.5 cm^3, the mice are separated into two groups. […] At the end of the 4-week treatment, mice are euthanized. Their tumors are excised and weighed. Tumors, samples of adjacent nonmalignant tissues, and prostates are collected for comparative analysis.
A portion of the tumor is used for RNA-Seq (RNA sequencing) analysis to reveal the presence and quantity of the entire set of RNA present in these cells.
These measurements are performed using a fluorescence-based in situ DNA damage and repair assay.

C[C@@H]1C/C=C/C=C/C=C/C=C/[C@H](O[C@@H]2O[C@H](C)[C@@H](O)[C@H](N)[C@@H]2O)C[C@@H]2O[C@](O)(C[C@@H](O)C[C@H]3O[C@@H]3/C=C/C(=O)O1)C[C@H](O)[C@H]2C(=O)O [natamycin]
RWPE1 cell viability (RWPE1 cells [1]): significantly decreased | LNCaP cell proliferation, concentration dependence (LNCaP cells; FBS medium): significantly inhibited by all concentrations | LNCaP cell proliferation, concentration dependence (LNCaP cells; medium with CSS): 10 μM and 1 μM were inhibitory | LNCaP cellular proliferation (LNCaP cells; FBS): slowest proliferation rate | LNCaP cellular impedance (LNCaP cells; androgen depleted medium (CSS)): abolished cellular impedance | PNT1A cell proliferation, concentration dependence (PNT1A cells; 1 μM and 0.1 μM, both CSS and FBS medium): inhibited only with 10 μM | time of treatment at which effect on PNT1A proliferation became evident (PNT1A cells; FBS and CSS media): 42 h | PNT1A proliferation (PNT1A cells; both FBS and CSS supplemented media): proliferated in the presence of all inhibitors except natamycin | RWPE1 proliferation (RWPE1 cells [2]): slightly inhibited | toxicity for prostate cancer cells in a mouse model (LAPC4 xenograft; LAPC4 xenograft, intravenously, 4 weeks): specific toxicity for prostate cancer cells | tolerability by noncancerous tissues in a mouse model (LAPC4 xenograft; mouse, in vivo, iv): well-tolerated
